Test results taken from the supplement of paper PMC13380429.

Tests used:
Conditions in all cases: 72 h
[1] = system: Caco-2; assay: drug sensitivity score (DSS) for viability; higher = more toxic; extreme values may be limits of the assay
[2] = system: HepG2; assay: as above
[3] = system: U2OS; assay: as above
[4] = system: Vero E6; assay: as above
[5] = system: Calu-3; assay: as above
[6] = system: HepG2; assay: relative viability EC50 (midpoint between 100% and the lowest measured viability); higher = less toxic
[7] = system: U2OS; assay: as above
[8] = system: Vero E6; assay: as above
[9] = system: Calu-3; assay: as above
[10] = system: Caco-2; assay: cell viability relative to DMSO; higher = less toxic
[11] = system: HepG2; assay: as above
[12] = system: U2OS; assay: as above
[13] = system: Vero E6; assay: as above
[14] = system: Calu-3; assay: as above

Row | Compound | drug sensitivity score [1] | drug sensitivity score [2] | drug sensitivity score [3] | drug sensitivity score [4] | drug sensitivity score [5] | relative viability EC50 [6] [µM] | relative viability EC50 [7] [µM] | relative viability EC50 [8] [µM] | relative viability EC50 [9] [µM] | cell viability ([10]; 1 nM) [%] | cell viability ([10]; 10 nM) [%] | cell viability ([10]; 100 nM) [%] | cell viability ([10]; 1000 nM) [%] | cell viability ([10]; 10000 nM) [%] | cell viability ([11]; 1 nM) [%] | cell viability ([11]; 10 nM) [%] | cell viability ([11]; 100 nM) [%] | cell viability ([11]; 1000 nM) [%] | cell viability ([11]; 10000 nM) [%] | cell viability ([12]; 1 nM) [%] | cell viability ([12]; 10 nM) [%] | cell viability ([12]; 100 nM) [%] | cell viability ([12]; 1000 nM) [%] | cell viability ([12]; 10000 nM) [%] | cell viability ([13]; 1 nM) [%] | cell viability ([13]; 10 nM) [%] | cell viability ([13]; 100 nM) [%] | cell viability ([13]; 1000 nM) [%] | cell viability ([13]; 10000 nM) [%] | cell viability ([14]; 1 nM) [%] | cell viability ([14]; 10 nM) [%] | cell viability ([14]; 100 nM) [%] | cell viability ([14]; 1000 nM) [%] | cell viability ([14]; 10000 nM) [%]
1 | COc1cc2ncnc(Nc3ccc(Cl)cc3F)c2cc1OC | 4.7 | 0 | 0.7 | 7.4 | 9 | > 10 | > 10 | 0.434 | 0.903 | 91.1 | 91.6 | 88.6 | 81.5 | 62.4 | 99.1 | 107 | 89.4 | 109 | 87.1 | 97.3 | 98.5 | 99.4 | 96.3 | 84.1 | 100 | 99.2 | 87.7 | 66.8 | 48.6 | 96.2 | 103 | 90.2 | 61.1 | 22.6
2 | Cc1c(C(=O)NCCCO)cnn1-c1nc(-c2cccc(C(F)(F)F)c2)cs1 | 1.4 | 2.1 | 0.5 | 0 | 0 | – | > 10 | > 10 | > 10 | 93.5 | 91.4 | 96.1 | 102 | 67.1 | 99.3 | 91.1 | 96 | 106 | 52.9 | 101 | 103 | 93.3 | 98.1 | 83.9 | 98.1 | 95.9 | 102 | 97.7 | 90.3 | 107 | 102 | 112 | 104 | 94.3
3 | NC1(C(=O)N[C@@H](CCO)c2ccc(Cl)cc2)CCN(c2ncnc3[nH]ccc23)CC1 [AZD5363] | 5.3 | 3 | 3.6 | 0 | 2.5 | – | – | > 10 | > 10 | 100 | 102 | 93.3 | 74.8 | 54.6 | 99.3 | 101 | 93.8 | 84.8 | 66.6 | 97.4 | 94.7 | 92.5 | 90.9 | 57.5 | 98.7 | 99.9 | 96.4 | 94.8 | 90.8 | 113 | 101 | 102 | 85.6 | 75.6
4 | CC1(C)CC(Oc2ccc(-c3ccc(-c4cn[nH]c4)cc3O)nn2)CC(C)(C)N1 [LMI070] | 2 | 10.7 | 6.2 | 11.5 | 2.9 | 0.926 | 2.6 | 0.935 | – | 95.1 | 108 | 106 | 94.6 | 72.5 | 107 | 104 | 110 | 51.8 | 12.4 | 96.4 | 102 | 103 | 93.5 | 6.6 | 101 | 102 | 104 | 48.5 | 5.1 | 96.7 | 97.1 | 92.7 | 74.5 | 85.4
5 | CC[N+](CC)(CC)CCOc1ccc(/C=C/c2ccccc2)cc1 [MG-624] | 2.3 | 0.7 | 0 | 0 | 0 | > 10 | > 10 | > 10 | > 10 | 101 | 100 | 93.6 | 89.3 | 68.7 | 106 | 102 | 102 | 99.3 | 78.9 | 101 | 103 | 100 | 104 | 93 | 97.9 | 91 | 88.6 | 97.8 | 97.4 | 101 | 103 | 94.3 | 95.4 | 93.3
6 | CCOc1cc(C(C)(C)C)ccc1C1=N[C@@](C)(c2ccc(Cl)cc2)[C@@](C)(c2ccc(Cl)cc2)N1C(=O)N1CCN(CCCS(C)(=O)=O)CC1 [RG7112] | 3.1 | 13.7 | 5.5 | 7.1 | 2 | 0.327 | 1.34 | 1.38 | > 10 | 101 | 95.9 | 104 | 94.5 | 56.6 | 95.1 | 102 | 86.3 | 35.2 | 20.6 | 97.6 | 98.1 | 96.9 | 80.5 | 44.7 | 106 | 107 | 99.3 | 78.1 | 28.8 | 98 | 94.6 | 101 | 89 | 77.5
7 | O=C1N=C(NCc2cccs2)S/C1=C\c1ccc2ncccc2c1 [Ro-3306] | 1 | 9.2 | 0.7 | 1.1 | 0 | – | > 10 | > 10 | > 10 | 89.1 | 105 | 97.2 | 100 | 74.2 | 93.2 | 77.7 | 90.2 | 62.2 | 51 | 97.9 | 98.5 | 97.1 | 98.3 | 81.1 | 97 | 97.4 | 98.5 | 93.8 | 80.9 | 101 | 113 | 94 | 103 | 104
8 | CCOc1cc(C(=O)Nc2ccc(Cl)c(-c3nc4ccccc4[nH]3)c2)cc(OCC)c1OCC [SANT-2] | 3.4 | 2.5 | 0 | 0 | 1.7 | – | > 10 | > 10 | > 10 | 94.6 | 102 | 89.4 | 91.6 | 57.8 | 102 | 94.4 | 99.6 | 90.9 | 71.5 | 94.2 | 98.8 | 98.3 | 103 | 90 | 97.4 | 93.7 | 99.4 | 95.2 | 92.6 | 103 | 111 | 97.5 | 94 | 75.7
9 | COc1cc2c(cc1OC)CN(C(=O)/C=C/c1c(-c3ccccc3)n(C)c3ncccc13)CC2 [SIS3] | 1.8 | 0 | 0 | 0 | – | > 10 | > 10 | > 10 | – | 93.9 | 94.5 | 88.8 | 96.5 | 71.1 | 98.9 | 106 | 106 | 106 | 106 | 99 | 101 | 94.9 | 99.9 | 96.2 | 100 | 93.3 | 98.8 | 98.2 | 100 | – | – | – | – | –
10 | C[C@]12CC[C@H]3[C@@H](CCC4=CC(=O)CC[C@@]43C)[C@@H]1CC[C@@H]2O [TESTOSTERONE] | 8.9 | 0 | 0 | 0 | 0 | > 10 | > 10 | > 10 | > 10 | 104 | 97.6 | 70.8 | 72.6 | 79.9 | 81 | 91.7 | 104 | 104 | 95.1 | 102 | 92.4 | 98.7 | 100 | 94.6 | 97.6 | 103 | 98.7 | 108 | 87.9 | 95.2 | 99.1 | 102 | 95.3 | 92.3
11 | Cc1c2oc3c(C)ccc(C(=O)N[C@@H]4C(=O)N[C@@H](C(C)C)C(=O)N5CCC[C@H]5C(=O)N(C)CC(=O)N(C)[C@@H](C(C)C)C(=O)O[C@@H]4C)c3nc-2c(C(=O)N[C@@H]2C(=O)N[C@@H](C(C)C)C(=O)N3CCC[C@H]3C(=O)N(C)CC(=O)N(C)[C@@H](C(C)C)C(=O)O[C@@H]2C)c(N)c1=O [actinomycin-d] | 15.2 | 36.5 | 29.2 | 20.1 | 25.9 | 0.0085 | 0.0296 | 0.166 | 0.0152 | 95.6 | 77.5 | 58.6 | 61 | 65.9 | 113 | 41.4 | 15.9 | 3.1 | 5.1 | 105 | 65.9 | 31.5 | 0.7 | 1 | 101 | 102 | 79.5 | 6.9 | 7.9 | 102 | 71.4 | 31.7 | 24.5 | 36.7
12 | Cc1nc(NC(=O)N2CCC[C@H]2C(N)=O)sc1-c1ccnc(C(C)(C)C(F)(F)F)c1 [alpelisib] | 3.9 | 6.1 | 1.8 | 1.2 | 9.2 | – | – | > 10 | 0.743 | 107 | 102 | 89.8 | 91.5 | 52.3 | 102 | 99.7 | 89.6 | 71 | 60.1 | 102 | 93.3 | 96.8 | 89.9 | 73.7 | 104 | 104 | 98.4 | 94.7 | 80.3 | 87.4 | 93.8 | 88.4 | 60.8 | 25.7
13 | COc1ccccc1OCCNCC(O)COc1cccc2[nH]c3ccccc3c12 (stereo not drawn) [carvedilol] | – | 0.1 | 0 | 0 | 0 | > 10 | > 10 | > 10 | > 10 | – | – | – | – | – | 99.3 | 108 | 88.7 | 100 | 86.6 | 96.4 | 100 | 103 | 93.1 | 92.3 | 100 | 102 | 94.2 | 107 | 94.7 | 97 | 92.2 | 102 | 89.2 | 97.4
14 | Clc1ccccc1C(c1ccccc1)(c1ccccc1)n1ccnc1 [clotrimazole] | 2.2 | 2.2 | 1.2 | 0 | 0 | – | – | > 10 | > 10 | 96 | 97.1 | 96.2 | 91.9 | 71 | 96.9 | 98 | 114 | 99.8 | 56.9 | 104 | 104 | 95.9 | 99.5 | 72 | 93.8 | 95.3 | 100 | 99.2 | 89.9 | 94.7 | 102 | 92.9 | 96.4 | 94
